Values joined by “and” are separate entries in the source; they are usually repeats but may differ in a detail not shown here. Equal values may be shown once.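 Cultured in 96-well plates, cells were exposed to test compound for 48 hours across five concentrations. GI50 = concentration required for 50% inhibition of growth. TGI: total growth inhibition.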

Some test systems named below: 786-0 renal; EKVX NSCLC; HS 578T breast; HT29 colon; M14 melanoma; MALME-3M melanoma; NCI-H23 lung; SF-268 CNS; SN12C renal; T-47D breast.
Assay in all cases: NCI anticancer screen, dose series, 48 h

As for `O=C(/C=C/c1ccccc1O)c1ccccc1`, the GI50 in the assay on 786-0 renal is 14.4 µM; in the assay with EKVX NSCLC, 11 µM; with HS 578T breast it was 5.67 µM; in the assay with HT29 colon, 3.55 µM; in the assay on M14 melanoma, 8.23 µM; in the assay on MALME-3M melanoma, 5.5 µM. Besides, the GI50 was 9.63 µM in the assay on NCI-H23 lung, 6.34 µM in the assay on SF-268 CNS, 12.9 µM in the assay on SN12C renal and 14.7 µM in the assay on T-47D breast. Further, the TGI in the assay on 786-0 renal is 29.7 µM; with EKVX NSCLC, 29.2 µM; in the assay with HS 578T breast it was 30.4 µM; in the assay with HT29 colon, 15.4 µM; in the assay with M14 melanoma, 21.4 µM; in the assay with MALME-3M melanoma, 20.4 µM. Besides, the TGI in the assay with NCI-H23 lung was found to be 23.2 µM; with SF-268 CNS it was 21.2 µM; in the assay on SN12C renal it was 28.7 µM; in the assay on T-47D breast, 64.5 µM.
In the case of `COc1c(Nc2ncc(Cl)c(N[C@@H]3[C@H]4C=CC(C4)[C@@H]3C(N)=O)n2)ccc2c1CC[C@@H](N1CCOCC1)CC2`, the GI50 in the assay with 786-0 renal is 1.97 µM; with EKVX NSCLC, 1.3 µM; with HS 578T breast, 1.88 µM; in the assay with HT29 colon, 2.68 µM; in the assay on M14 melanoma, 2.14 µM; with MALME-3M melanoma it was 1.7 µM. For the same compound, the GI50 is 6.02 µM with NCI-H23 lung, 4.71 µM with SF-268 CNS, 3.87 µM with SN12C renal and 7.78 µM in the assay on T-47D breast. For the same compound, the TGI with 786-0 renal came to 12.2 µM; with EKVX NSCLC, 10.2 µM; in the assay with HS 578T breast it was 9 µM; in the assay with HT29 colon, 10.6 µM; in the assay on M14 melanoma it was 12.7 µM; with MALME-3M melanoma, 14.6 µM. The TGI was 24.7 µM in the assay with NCI-H23 lung, 20.8 µM in the assay on SF-268 CNS, 29.2 µM with SN12C renal and 25.5 µM in the assay with T-47D breast.
In the case of `COc1cccc(C2=NN(C(C)=O)C(c3cc(OC)c(OC)c(OC)c3)C2)c1` (stereo not given), the GI50 in the assay with 786-0 renal is 2.63 µM; in the assay on EKVX NSCLC it was 4.96 µM; in the assay on HS 578T breast it was 1.36 µM; in the assay with HT29 colon, 3.1 µM; with M14 melanoma, 1.47 µM; in the assay on MALME-3M melanoma it was 2.47 µM. Also, the GI50 was 3.48 µM in the assay on NCI-H23 lung, 10.8 µM with SF-268 CNS, 5.69 µM with SN12C renal and 4.49 µM in the assay with T-47D breast. The TGI in the assay on 786-0 renal is over 20.6 µM; with EKVX NSCLC it was over 100 µM; with HS 578T breast, 5.11 µM; in the assay with HT29 colon it was over 100 µM; in the assay with M14 melanoma, over 100 µM; with MALME-3M melanoma it was over 100 µM. Moreover, the TGI in the assay with NCI-H23 lung, with SF-268 CNS, with SN12C renal and with T-47D breast was over 100 µM in each case.
`CCN(CC)CCC(CNc1c2ccc([N+](=O)[O-])cc2nc2cc(OC)c(OC)cc12)c1ccccc1` (stereo not given): the GI50 was 1.07 µM and 0.671 µM with 786-0 renal; 0.335 µM and 0.264 µM in the assay with EKVX NSCLC; 0.528 µM and 0.272 µM in the assay on HS 578T breast; 0.0405 µM and 0.0289 µM in the assay on HT29 colon; 0.335 µM and 0.305 µM in the assay with M14 melanoma; 0.201 µM and 0.191 µM with MALME-3M melanoma. Moreover, the GI50 was 0.292 µM and 0.287 µM in the assay on NCI-H23 lung; 0.238 µM and 0.109 µM in the assay with SF-268 CNS; 0.229 µM and 0.218 µM with SN12C renal; 0.822 µM and 0.541 µM with T-47D breast. Besides, the TGI is 2.54 µM and 1.93 µM with 786-0 renal; 1.38 µM and 1.13 µM with EKVX NSCLC; 2.88 µM and 1.2 µM in the assay on HS 578T breast; 0.239 µM and 0.1 µM in the assay on HT29 colon; 1.4 µM and 1.23 µM in the assay with M14 melanoma; 0.454 µM and 0.479 µM in the assay on MALME-3M melanoma. Further, the TGI in the assay with NCI-H23 lung is 1.23 µM and 1.29 µM; with SF-268 CNS, 1.29 µM and 0.573 µM; with SN12C renal, 1.22 µM and 1.49 µM; with T-47D breast it was 2.97 µM and 2.61 µM.
Consider `CNC(=O)c1cc(Oc2ccc3nc(NC(=O)c4cc(C(F)(F)F)cc(C(F)(F)F)c4)sc3c2)ccn1`, for which the GI50 in the assay on 786-0 renal was 2.55 µM; with EKVX NSCLC, 3.43 µM; in the assay on HS 578T breast, 3.15 µM; with HT29 colon, 3.85 µM; in the assay with M14 melanoma, 3.61 µM; with MALME-3M melanoma, 2.03 µM. In addition, the GI50 in the assay with NCI-H23 lung was 3.37 µM; in the assay on SF-268 CNS, 2.66 µM; in the assay on SN12C renal it was 3.22 µM; with T-47D breast, 3.04 µM. Moreover, the TGI in the assay with 786-0 renal was found to be 8.07 µM; in the assay with EKVX NSCLC it was 23.3 µM; in the assay with HS 578T breast it was 13.3 µM; in the assay with HT29 colon, 16.8 µM; with M14 melanoma, 19.4 µM; with MALME-3M melanoma it was 6.65 µM. Moreover, the TGI in the assay with NCI-H23 lung amounted to 17.7 µM; with SF-268 CNS it was 17 µM; in the assay with SN12C renal it was 12.5 µM; with T-47D breast it was 9.17 µM.
For `S=c1cn[nH]c2ccc(Br)cc12`, the TGI in the assay with 786-0 renal was over 100 µM; in the assay on EKVX NSCLC it was 75.3 µM; with HS 578T breast it was over 100 µM; in the assay on HT29 colon, over 100 µM; in the assay with M14 melanoma it was over 100 µM; in the assay on MALME-3M melanoma it was 79 µM. Also, the TGI in the assay with NCI-H23 lung, in the assay with SF-268 CNS, in the assay with SN12C renal and with T-47D breast was over 100 µM each time.
On to `Nc1nn(C(=O)Nc2ccc(Cc3ccccc3)cc2)c2ccc(Cl)cc12`, for which the GI50 in the assay with 786-0 renal was 4.59 µM; with EKVX NSCLC, 5.85 µM; in the assay on HS 578T breast, 14.4 µM; in the assay on HT29 colon it was 3.54 µM; in the assay with M14 melanoma, 0.0666 µM; in the assay with MALME-3M melanoma it was 12 µM. The GI50 in the assay on NCI-H23 lung is 5.72 µM; in the assay on SF-268 CNS, 13.2 µM; with SN12C renal, 14.2 µM; with T-47D breast, 0.0957 µM. For the same compound, the TGI was 28.7 µM in the assay on 786-0 renal; 98.8 µM in the assay on EKVX NSCLC; 44.3 µM with HS 578T breast; 27.3 µM in the assay with HT29 colon; 11.7 µM with M14 melanoma; over 74 µM in the assay on MALME-3M melanoma. Further, the TGI with NCI-H23 lung is over 82.7 µM; with SF-268 CNS it was 52.3 µM; in the assay with SN12C renal, 48.1 µM; with T-47D breast it was 28.8 µM.
As to `O=[N+]([O-])c1ccccc1S(=O)(=O)c1ccccc1[N+](=O)[O-]`, the TGI was over 100 µM in the assay on 786-0 renal; over 56.2 µM in the assay on EKVX NSCLC; over 100 µM in the assay with HS 578T breast; over 100 µM in the assay on HT29 colon; over 100 µM in the assay on M14 melanoma; over 100 µM in the assay on MALME-3M melanoma. For the same compound, the TGI in the assay on NCI-H23 lung is over 100 µM; in the assay on SF-268 CNS, over 89.3 µM; in the assay with SN12C renal it was over 100 µM; in the assay on T-47D breast, over 100 µM.
For `C[C@@]12CCC[C@@](C)(C(=O)O)C1CC[C@]13C=C(CO)[C@](O)(CCC12)C3` (stereo not given in full), the GI50 in the assay on 786-0 renal, with EKVX NSCLC, in the assay with HS 578T breast, with HT29 colon, with M14 melanoma and in the assay on MALME-3M melanoma was over 100 µM in each case. The GI50 in the assay with NCI-H23 lung, with SF-268 CNS, in the assay on SN12C renal and with T-47D breast was over 100 µM throughout. The TGI in the assay with 786-0 renal, with EKVX NSCLC, in the assay with HS 578T breast, in the assay with HT29 colon, in the assay on M14 melanoma and with MALME-3M melanoma was over 100 µM each time. In addition, the TGI in the assay on NCI-H23 lung, in the assay with SF-268 CNS, in the assay on SN12C renal and in the assay on T-47D breast was over 100 µM each time.
Turning to `O=C(/C=C/c1ccccc1Cl)c1ccc(O)cc1`, the GI50 in the assay with 786-0 renal was 15.8 µM; in the assay on EKVX NSCLC, 10 µM; with HS 578T breast, 2.33 µM; in the assay on HT29 colon it was 4.72 µM; in the assay on M14 melanoma it was 10.6 µM; in the assay on MALME-3M melanoma, 16.3 µM. Further, the GI50 in the assay on NCI-H23 lung is 10.6 µM; with SF-268 CNS it was 8.91 µM; in the assay on SN12C renal it was 8.51 µM; with T-47D breast it was 6.38 µM. Besides, the TGI in the assay on 786-0 renal is 30 µM; in the assay with EKVX NSCLC, 25.8 µM; in the assay on HS 578T breast it was 7.19 µM; in the assay on HT29 colon, 17.4 µM; in the assay with M14 melanoma, 24.6 µM; in the assay with MALME-3M melanoma it was 31.1 µM. Moreover, the TGI was 31.5 µM in the assay on NCI-H23 lung, 25.3 µM in the assay on SF-268 CNS, 33.1 µM with SN12C renal and 25.9 µM in the assay on T-47D breast.
Take `C=C1C(=O)O[C@H]2[C@H]1CC/C(COC(=O)NCc1c[nH]c3ccc(OC)cc13)=C\CC[C@@]1(C)O[C@@H]21`: the GI50 with 786-0 renal was 0.445 µM; in the assay with EKVX NSCLC it was 2.07 µM; in the assay on HS 578T breast it was 2.75 µM; in the assay on HT29 colon it was 1.02 µM; in the assay on M14 melanoma it was 1.36 µM; with MALME-3M melanoma, 2.14 µM. Moreover, the GI50 with NCI-H23 lung was 3 µM; with SF-268 CNS it was 2.55 µM; in the assay with SN12C renal, 1.42 µM; in the assay on T-47D breast, 1.89 µM. Further, the TGI in the assay with 786-0 renal amounted to 1.8 µM; with EKVX NSCLC it was 6.2 µM; in the assay with HS 578T breast, 16.2 µM; in the assay on HT29 colon, 2.71 µM; in the assay with M14 melanoma, 3.4 µM; in the assay on MALME-3M melanoma it was 4.24 µM. The TGI in the assay on NCI-H23 lung stood at 9.33 µM; with SF-268 CNS, 7.65 µM; in the assay on SN12C renal, 5.21 µM; in the assay with T-47D breast, 4.38 µM.
Regarding `CCNC(=O)Nc1ccc(-c2nc3c(c(N4CCOC[C@@H]4C)n2)CCN(C2COC2)C3)cc1`, the GI50 is 0.386 µM and 0.278 µM in the assay on 786-0 renal; 0.323 µM in the assay on EKVX NSCLC; 0.155 µM and 0.146 µM in the assay with HS 578T breast; 0.587 µM and 0.409 µM in the assay with HT29 colon; 0.418 µM and 0.323 µM in the assay on M14 melanoma; 0.0743 µM and 0.0825 µM in the assay with MALME-3M melanoma. Also, the GI50 was 0.69 µM and 0.512 µM with NCI-H23 lung; 0.591 µM and 0.29 µM in the assay with SF-268 CNS; 0.31 µM and 0.285 µM with SN12C renal; 0.0498 µM and 0.0316 µM in the assay with T-47D breast. The TGI with 786-0 renal is 29.1 µM and > 10 µM; in the assay with EKVX NSCLC, over 9.65 µM; in the assay with HS 578T breast, 0.804 µM and 0.93 µM; in the assay with HT29 colon it was over 100 µM; with M14 melanoma, over 100 µM; in the assay on MALME-3M melanoma, 1.6 µM and 1.2 µM. For the same compound, the TGI with NCI-H23 lung is over 100 µM; with SF-268 CNS, over 100 µM; with SN12C renal it was over 100 µM; in the assay on T-47D breast it was 0.591 µM and 0.381 µM.

Values taken from PubChem BioAssay (NCI).
